# Experimental data taken from ChEMBL document CHEMBL6109154, “Development of Novel PRMT7 Inhibitors for the Treatment of Prostate Cancer” (J Med Chem, 2025).
# Experiments:
# [1] = target: T1, Protein arginine N-methyltransferase 7 (Homo sapiens, UniProt Q9NVM4); assay: Inhibition of N-terminal FLAG-tagged recombinant human PRMT7 extracted from baculovirus infected Sf9 cells using Histone H4 (1 to 21) peptide as substrate preincubated for 15 mins followed by [3H]-SAM and substrate addition and measured after 180 mins by microplate counter analysis
# T1 sequence (Q9NVM4 whole entry): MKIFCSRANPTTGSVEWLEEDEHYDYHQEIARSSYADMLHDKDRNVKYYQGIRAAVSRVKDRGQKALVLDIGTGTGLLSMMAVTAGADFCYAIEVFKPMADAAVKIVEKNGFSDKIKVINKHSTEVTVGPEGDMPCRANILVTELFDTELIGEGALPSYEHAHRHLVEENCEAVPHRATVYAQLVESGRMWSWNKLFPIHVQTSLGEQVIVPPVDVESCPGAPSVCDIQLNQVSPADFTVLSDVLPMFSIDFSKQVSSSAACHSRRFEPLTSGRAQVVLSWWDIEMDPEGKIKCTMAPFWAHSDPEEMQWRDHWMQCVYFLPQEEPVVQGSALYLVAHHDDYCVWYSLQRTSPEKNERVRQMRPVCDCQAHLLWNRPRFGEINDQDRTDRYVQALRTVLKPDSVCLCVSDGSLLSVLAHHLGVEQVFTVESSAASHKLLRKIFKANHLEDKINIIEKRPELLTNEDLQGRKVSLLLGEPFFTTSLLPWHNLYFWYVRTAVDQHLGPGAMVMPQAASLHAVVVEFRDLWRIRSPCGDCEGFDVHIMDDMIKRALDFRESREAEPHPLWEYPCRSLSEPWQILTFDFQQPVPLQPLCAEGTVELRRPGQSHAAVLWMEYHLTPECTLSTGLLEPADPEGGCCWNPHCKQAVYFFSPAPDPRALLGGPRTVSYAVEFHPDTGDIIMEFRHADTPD
# DU-145 [2] = assay: Antiproliferative activity against human DU-145 cells assessed as reduction in cell viability incubated for 48 hrs by CCK8 assay; assay type: functional, cell-based; settings: DU-145, 48 h
# [3] = target: T1, Protein arginine N-methyltransferase 7; assay: Binding affinity to N-terminal GST-tagged recombinant full length human PRMT7 extracted from baculovirus infected Sf9 cells assessed as dissociation constant by SPR analysis
# CWR22R = assay: Antiproliferative activity against human 22Rv1 cells assessed as reduction in cell viability incubated for 48 hrs by CCK8 assay; assay type: functional, cell-based; settings: 22Rv1, 48 h
# PC-3 = assay: Antiproliferative activity against human PC-3 cells assessed as reduction in cell viability incubated for 48 hrs by CCK8 assay; assay type: functional, cell-based; settings: PC-3, 48 h
# VCaP = assay: Antiproliferative activity against human VCaP cells assessed as reduction in cell viability incubated for 48 hrs by CCK8 assay; assay type: functional, cell-based
# DU-145 [4] = assay: Antitumor activity against human DU-145 cells xenografted in male BALB/c nude mouse assessed as tumor growth inhibition at 20 mg/kg, ip relative to control; settings: DU-145, read-out: TGI
# [5] = target: Protein arginine N-methyltransferase 1 (Homo sapiens, UniProt Q99873); assay: Inhibition of N-terminal FLAG-tagged recombinant full length human PRMT1 extracted from baculovirus expression system preincubated for 10 mins followed by substrate addition and measured after 3 hrs by MTase-Glo detection reagent based luminescence analysis
# Protein arginine N-methyltransferase 1, sequence (Q99873 whole entry, the tested form may be a part): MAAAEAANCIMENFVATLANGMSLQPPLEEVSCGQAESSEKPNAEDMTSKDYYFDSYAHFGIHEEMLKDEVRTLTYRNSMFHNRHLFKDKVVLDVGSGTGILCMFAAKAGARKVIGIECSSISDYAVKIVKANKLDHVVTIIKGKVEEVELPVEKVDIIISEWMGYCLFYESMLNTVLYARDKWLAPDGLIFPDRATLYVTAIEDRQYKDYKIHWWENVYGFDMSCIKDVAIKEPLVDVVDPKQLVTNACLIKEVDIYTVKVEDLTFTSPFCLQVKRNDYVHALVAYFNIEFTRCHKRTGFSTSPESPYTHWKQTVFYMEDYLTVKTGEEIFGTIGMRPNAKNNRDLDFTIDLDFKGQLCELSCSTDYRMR
# [6] = target: Protein arginine N-methyltransferase 3 (Homo sapiens, UniProt O60678); assay: Inhibition of N-terminal His-tagged recombinant human PRMT3 (2 to 531 residues) extracted from Escherichia coli preincubated for 10 mins followed by substrate addition and measured after 3 hrs by MTase-Glo detection reagent based luminescence analysis
# Protein arginine N-methyltransferase 3, sequence (O60678 whole entry, the tested form may be a part): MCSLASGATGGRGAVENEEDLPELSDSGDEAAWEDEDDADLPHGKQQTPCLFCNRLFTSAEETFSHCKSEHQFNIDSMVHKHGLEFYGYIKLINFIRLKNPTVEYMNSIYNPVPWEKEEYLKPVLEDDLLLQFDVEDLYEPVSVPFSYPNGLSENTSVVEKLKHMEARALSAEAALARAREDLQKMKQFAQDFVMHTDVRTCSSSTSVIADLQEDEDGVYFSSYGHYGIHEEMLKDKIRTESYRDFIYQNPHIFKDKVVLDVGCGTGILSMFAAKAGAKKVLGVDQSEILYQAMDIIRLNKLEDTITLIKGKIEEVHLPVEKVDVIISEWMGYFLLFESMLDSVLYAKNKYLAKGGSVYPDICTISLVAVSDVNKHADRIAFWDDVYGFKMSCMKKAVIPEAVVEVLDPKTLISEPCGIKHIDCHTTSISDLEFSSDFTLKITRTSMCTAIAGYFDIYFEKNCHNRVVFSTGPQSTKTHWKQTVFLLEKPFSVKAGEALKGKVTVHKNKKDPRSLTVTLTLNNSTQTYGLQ
# [7] = target: T2, Histone-arginine methyltransferase CARM1 (Homo sapiens, UniProt Q86X55); assay: Inhibition of N-terminal FLAG-tagged recombinant full length human PRMT4 extracted from baculovirus expression system preincubated for 10 mins followed by substrate addition and measured after 3 hrs by MTase-Glo detection reagent based luminescence analysis
# T2 sequence (Q86X55 whole entry): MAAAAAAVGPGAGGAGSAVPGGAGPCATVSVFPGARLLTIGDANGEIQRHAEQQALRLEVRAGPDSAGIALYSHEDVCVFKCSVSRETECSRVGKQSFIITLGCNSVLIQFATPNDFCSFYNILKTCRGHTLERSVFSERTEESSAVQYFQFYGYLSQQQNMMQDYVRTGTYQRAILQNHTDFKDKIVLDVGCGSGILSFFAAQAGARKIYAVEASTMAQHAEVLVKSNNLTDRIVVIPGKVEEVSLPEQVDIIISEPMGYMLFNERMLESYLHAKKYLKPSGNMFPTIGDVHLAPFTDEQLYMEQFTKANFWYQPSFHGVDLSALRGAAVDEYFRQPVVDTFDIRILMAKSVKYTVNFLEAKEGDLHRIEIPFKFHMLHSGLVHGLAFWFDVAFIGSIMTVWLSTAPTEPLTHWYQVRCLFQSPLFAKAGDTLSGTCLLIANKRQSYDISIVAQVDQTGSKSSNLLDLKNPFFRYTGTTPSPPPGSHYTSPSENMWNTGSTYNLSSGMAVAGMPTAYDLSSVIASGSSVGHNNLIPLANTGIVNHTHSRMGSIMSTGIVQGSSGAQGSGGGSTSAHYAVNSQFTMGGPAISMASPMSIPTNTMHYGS
# [8] = target: Protein arginine N-methyltransferase 6 (Homo sapiens, UniProt Q96LA8); assay: Inhibition of PRMT6 (unknown origin) preincubated for 10 mins followed by substrate addition and measured after 3 hrs by MTase-Glo detection reagent based luminescence analysis
# Protein arginine N-methyltransferase 6, sequence (Q96LA8 whole entry, the tested form may be a part): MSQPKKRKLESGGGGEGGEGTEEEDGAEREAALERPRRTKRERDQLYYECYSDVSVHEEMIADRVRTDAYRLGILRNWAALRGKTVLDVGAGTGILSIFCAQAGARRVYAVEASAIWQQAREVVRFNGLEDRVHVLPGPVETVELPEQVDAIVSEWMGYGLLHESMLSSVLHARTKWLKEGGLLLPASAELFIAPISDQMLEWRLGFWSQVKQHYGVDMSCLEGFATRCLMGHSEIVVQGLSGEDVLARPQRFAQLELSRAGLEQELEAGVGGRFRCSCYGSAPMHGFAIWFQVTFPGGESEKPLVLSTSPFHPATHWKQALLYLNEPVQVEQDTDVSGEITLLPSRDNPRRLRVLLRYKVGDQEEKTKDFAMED
# [9] = target: Protein arginine N-methyltransferase 8 (Homo sapiens, UniProt Q9NR22); assay: Inhibition of N-terminal His-tagged human PRMT8 (61 to 394 residues) extracted from Escherichia coli preincubated for 10 mins followed by substrate addition and measured after 3 hrs by MTase-Glo detection reagent based luminescence analysis
# Protein arginine N-methyltransferase 8, sequence (Q9NR22 whole entry, the tested form may be a part): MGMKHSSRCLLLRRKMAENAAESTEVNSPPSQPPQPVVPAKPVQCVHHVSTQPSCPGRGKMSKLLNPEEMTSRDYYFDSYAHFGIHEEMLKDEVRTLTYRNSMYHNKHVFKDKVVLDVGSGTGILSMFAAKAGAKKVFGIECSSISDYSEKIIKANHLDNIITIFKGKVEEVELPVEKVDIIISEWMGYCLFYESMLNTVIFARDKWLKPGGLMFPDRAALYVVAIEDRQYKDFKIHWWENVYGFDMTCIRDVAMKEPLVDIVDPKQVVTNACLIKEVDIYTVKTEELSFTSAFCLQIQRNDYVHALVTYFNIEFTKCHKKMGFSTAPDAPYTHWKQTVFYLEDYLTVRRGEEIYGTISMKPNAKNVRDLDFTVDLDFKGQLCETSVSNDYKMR
# [10] = target: T3, Protein arginine N-methyltransferase 9 (Homo sapiens, UniProt Q6P2P2); assay: Inhibition of PRMT9 (unknown origin) incubated overnight by Alphascreen microplate reader
# T3 sequence (Q6P2P2 whole entry): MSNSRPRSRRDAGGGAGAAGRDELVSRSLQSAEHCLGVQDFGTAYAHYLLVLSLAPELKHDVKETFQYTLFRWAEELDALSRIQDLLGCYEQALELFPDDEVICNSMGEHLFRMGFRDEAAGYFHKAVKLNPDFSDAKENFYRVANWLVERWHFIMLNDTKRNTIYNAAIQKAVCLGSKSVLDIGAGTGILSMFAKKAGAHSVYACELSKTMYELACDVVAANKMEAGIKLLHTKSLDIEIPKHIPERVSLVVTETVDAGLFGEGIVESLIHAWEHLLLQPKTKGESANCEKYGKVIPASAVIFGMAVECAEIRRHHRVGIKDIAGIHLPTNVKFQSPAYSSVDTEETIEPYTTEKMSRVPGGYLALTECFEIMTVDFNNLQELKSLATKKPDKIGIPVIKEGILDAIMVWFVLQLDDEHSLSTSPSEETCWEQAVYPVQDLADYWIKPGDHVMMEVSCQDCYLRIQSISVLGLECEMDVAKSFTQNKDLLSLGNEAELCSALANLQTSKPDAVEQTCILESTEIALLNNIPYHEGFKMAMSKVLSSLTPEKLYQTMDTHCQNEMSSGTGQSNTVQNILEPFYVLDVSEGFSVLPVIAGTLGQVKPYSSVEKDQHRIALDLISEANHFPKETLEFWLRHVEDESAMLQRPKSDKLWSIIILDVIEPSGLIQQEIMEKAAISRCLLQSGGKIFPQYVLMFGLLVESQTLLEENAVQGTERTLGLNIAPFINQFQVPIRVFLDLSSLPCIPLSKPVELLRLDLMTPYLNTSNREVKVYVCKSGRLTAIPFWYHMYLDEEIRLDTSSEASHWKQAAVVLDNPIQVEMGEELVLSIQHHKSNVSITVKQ
IC50 [1],IC50 (DU-145 [2]),Kd [3],IC50 (PC-3),IC50 (VCaP),IC50 [5],IC50 [6],IC50 [7],IC50 [8],IC50 [9],IC50 [10],Structure (SMILES),IC50 (CWR22R),inhibition in vivo at 20 mg/kg (DU-145 [4])
9.91 µM,1.47 µM,7.12 µM,1.13 µM,1.66 µM,,,,,,,COc1cc(-c2ncc(F)c(Nc3ccc4nc(C)cc(N)c4c3)n2)cc(OC)c1OC,1.32 µM,40.3%
26 µM,,,,,,,,,,,COc1cc(-c2ccc3ncc(Nc4ccc(N(C)C)cc4)nc3c2)cc(OC)c1OC,,
,,,,,> 100 µM,> 100 µM,> 100 µM,> 100 µM,> 100 µM,> 100 µM,COc1cc(-c2nc(Nc3ccc4nc(C)cc(N)c4c3)c3sccc3n2)cc(OC)c1OC,,
